Assay [1] deals with B. subtilis reporter strain PY79(amy::PpanB::lacZ, cat). Kind of assay: Minimum inhibitory concentration (MIC) in 96-well microtiter plate, OD600 after about 18 hours. Type of assay: cell-based. The following applies: Bacillus subtilis. The protocol: The minimum inhibitory concentrations (MIC) for trimethoprim and sulfamethoxazole were determined for each of the reporter strains. To determine the MIC, a compound of interest (e.g., trimethoprim or sulfamethoxazole) was placed in a 96-well microtiter plate such that the concentration of the compound varies in various wells of the plate (e.g., by using a series of 2-fold dilutions of the compound). Approximately 5,000 cells from a logarithmically-growing culture (e.g., the B. subtilis strain PY79) in Luria broth were added to each well (e.g., in a volume of 50–80 μl). The plate then was incubated at 37° C. for approximately 18 hours. The OD600 was then read to measure cell growth in each well of the plate. The lowest concentration of the compound that leads to complete killing of the culture (i.e., the concentration of compound for which the OD600 nm is equal to a control well that contains only media and the test compound) is deemed the MIC for the particular compound and bacterial strain.

Assay [2] deals with panBCD operon (panB promoter). Kind of assay: RNA (transcriptional) profiling of panB, panC, panD mRNA levels in treated bacterial cells. Type of assay: cell-based, B. subtilis. The following applies: LB medium, 37° C.
Assay [3] deals with PABA uptake. The settings on record: 14C-PABA, Herrington (1994) Anal Biochem 216:427–430; cited from earlier work.
[4] abbreviates: 10 μg/ml trimethoprim, 90 minutes.

Structures are written as SMILES. Converted amounts (≈) assume the structure as drawn.

Results on three compounds are retold here after patent US7202023B2 (priority 2000, dated 2007).

As a reminder, the MIC is the smallest concentration in the dilution series that meets the test's criterion for growth inhibition. A low value points to greater potency. As to `Cc1cc(NS(=O)(=O)c2ccc(N)cc2)no1` [sulfamethoxazole], in assay [1], the MIC came to 500 µg/mL (≈ 1970 µM). In addition, the “panD mRNA levels induced” value in assay [2] (0.5 mg/ml sulfamethoxazole, 80 minutes) is on record as 148 fold.

For `Nc1ccc(S(=O)(=O)Nc2nccs2)cc1` [sulfathiazole], the PABA uptake result in assay [3] is reported as “inhibited”.

Regarding `COc1cc(Cc2cnc(N)nc2N)cc(OC)c1OC` [trimethoprim], in assay [1], inhibition of growth (MIC) required 3 µg/mL (≈ 10.3 µM). The PABA uptake entry in assay [3] is “inhibited”. In assay [2] (setting [4]), the “panB mRNA levels induced” value was 10 fold, the “panC mRNA levels induced” value was found to be 54 fold and the “panD mRNA levels induced” value is reported as 38 fold.
